Source: patent US10981879B2, “Thioether triazolopyridine and triazolopyrimidine inhibitors of myeloperoxidase” (BRISTOL-MYERS SQUIBB COMPANY, priority 2014, dated 2021)

How the values were obtained:
Assay type in all cases: biochemical
[1] = target: eosinophil peroxidase (EPX) (Homo sapiens (Human), UniProt P11678); assay: EPX bromination assay
Experimental: EPX bromination activity was measured in 100 mM KPi (pH 7.4) by monitoring the H2O2 catalyzed formation of 3-bromo tyrosine from tyrosine and potassium bromide. A 50 μl mixture of 0.6 μM EPX (Lee Biosolutions Cat #342-60) was added to 100 nL inhibitor in 100% DMSO in a 384 well REMP plate. Enzyme and compound were preincubated for ten minutes at rt.
After the ten minute preincubation of enzyme and inhibitor, 25 μL of a mixture containing 400 μM tyrosine and 1200 μM potassium bromide was added to the plate containing enzyme and inhibitor, followed by the addition of 25 μl of 20 μM H2O2. The reaction was allowed to proceed for 15 minutes, at which time it was quenched with 10 μL of 20% TCA. The final concentrations of all components were 0.3 μM EPX, 100 μM tyrosine, […], 5 μM H2O2, 0.1% DMSO, 2.0% TCA.
IC50 values were determined by determining the peak areas of 3-bromotyrosine present at the end of the 15 minute reaction and fitting the data to:
[formula] where A=minimal Y value (activity level of inhibited sample), B=maximal Y value (activity level of uninhibited sample), C=Log IC50, D=Hill Slope, x=concentration of inhibitor.
Reversed-phase analysis was performed on a Waters Acquity Ultra Performance LC system using an Acquity UPLC BEH C18 […], 2.1×50 mm analytical column. The column was maintained at 60° C. Samples were eluted using a gradient of 0%-100% B over 2.5 minutes, followed by equilibration with 100% A for 1 minute where A consisted of 0.1% TFA and B consisted of 90% MeOH/0.1% TFA at a flow rate of 0.6 mL/min. The retention time of 3-bromo tyrosine was 1.22 min.

myeloperoxidase (MPO) [2] = target: T1, myeloperoxidase (MPO) (Homo sapiens (Human), UniProt P05164); assay: MPO chlorination assay (APF)
Outline: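 Human MPO (200 pM) with 120 mM NaCl preincubated with inhibitor 10 minutes at rt in 100 mM KPi pH 7.4. Reaction started with APF mixture containing 10 μM H2O2; fluorescein fluorescence (ex 485/em 535 nm) read kinetically 3 minutes. IC50 from slopes of linear kinetic portion, fitted with a four-parameter Hill equation.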

myeloperoxidase (MPO) [3] = target: T1, myeloperoxidase (MPO); assay: MPO peroxidation assay (Amplex Red); conditions: Table 1
Experimental: MPO peroxidation activity was measured in 100 mM KPi (pH 7.4) by utilizing the non-fluorescent reagent Amplex Red (Invitrogen catalog #A12222) which can be oxidized to the highly fluorescent resorufin. Amplex Red is oxidized by the peroxidase action of MPO to resorufin. Reactions were carried out in 50 μL total volume by adding a 25 μL mixture of 200 pM myeloperoxidase and 40 nM H2O2 (Sigma #349887) to 100 nL inhibitor in 100% DMSO in a 384 well Perkin Elmer Optiplate. Enzyme and compound were preincubated for ten minutes at rt.
After the ten minute preincubation, 25 μL of an Amplex Red mixture containing 200 μM Amplex Red and 10 mM H2O2 was added to the plate. Kinetic determinations were carried out immediately on a Perkin Elmer Envision (15 minute kinetic read, Ex: 535 nm, Em: 590 nm).
IC50 values were calculated by determining the slope of the linear portion of the kinetic trace (180-540 secs), and using that calculated slope to determine % inhibition occurring at each concentration of inhibitor using the following equation:
[formula] where A=minimal Y value (activity level of inhibited sample), B=maximal Y value (activity level of uninhibited sample), C=Log IC50, D=Hill Slope, x=concentration of inhibitor. MPO Chlorination Assay

[4] = MPO chlorination assay, ranges given, read-out: MPO chlorination assay IC50

Sequence of eosinophil peroxidase (EPX) (P11678 251-715): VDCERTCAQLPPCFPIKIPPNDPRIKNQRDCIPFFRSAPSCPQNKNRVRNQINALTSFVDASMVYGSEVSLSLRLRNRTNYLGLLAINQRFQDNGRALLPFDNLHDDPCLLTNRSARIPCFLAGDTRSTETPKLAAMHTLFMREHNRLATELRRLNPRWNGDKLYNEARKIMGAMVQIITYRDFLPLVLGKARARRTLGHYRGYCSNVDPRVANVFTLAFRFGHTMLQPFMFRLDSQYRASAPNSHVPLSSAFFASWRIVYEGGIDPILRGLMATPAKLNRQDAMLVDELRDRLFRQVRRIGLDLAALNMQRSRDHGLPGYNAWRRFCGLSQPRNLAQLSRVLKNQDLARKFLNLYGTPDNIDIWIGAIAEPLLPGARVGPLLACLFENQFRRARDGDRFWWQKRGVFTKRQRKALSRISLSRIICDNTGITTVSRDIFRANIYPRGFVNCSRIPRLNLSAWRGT
Sequence of eosinophil peroxidase (EPX) (P11678 140-250): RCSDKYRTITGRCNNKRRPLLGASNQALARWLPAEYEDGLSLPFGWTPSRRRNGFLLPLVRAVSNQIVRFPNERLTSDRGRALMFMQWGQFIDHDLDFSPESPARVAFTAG
T1 sequence (P05164 49-745): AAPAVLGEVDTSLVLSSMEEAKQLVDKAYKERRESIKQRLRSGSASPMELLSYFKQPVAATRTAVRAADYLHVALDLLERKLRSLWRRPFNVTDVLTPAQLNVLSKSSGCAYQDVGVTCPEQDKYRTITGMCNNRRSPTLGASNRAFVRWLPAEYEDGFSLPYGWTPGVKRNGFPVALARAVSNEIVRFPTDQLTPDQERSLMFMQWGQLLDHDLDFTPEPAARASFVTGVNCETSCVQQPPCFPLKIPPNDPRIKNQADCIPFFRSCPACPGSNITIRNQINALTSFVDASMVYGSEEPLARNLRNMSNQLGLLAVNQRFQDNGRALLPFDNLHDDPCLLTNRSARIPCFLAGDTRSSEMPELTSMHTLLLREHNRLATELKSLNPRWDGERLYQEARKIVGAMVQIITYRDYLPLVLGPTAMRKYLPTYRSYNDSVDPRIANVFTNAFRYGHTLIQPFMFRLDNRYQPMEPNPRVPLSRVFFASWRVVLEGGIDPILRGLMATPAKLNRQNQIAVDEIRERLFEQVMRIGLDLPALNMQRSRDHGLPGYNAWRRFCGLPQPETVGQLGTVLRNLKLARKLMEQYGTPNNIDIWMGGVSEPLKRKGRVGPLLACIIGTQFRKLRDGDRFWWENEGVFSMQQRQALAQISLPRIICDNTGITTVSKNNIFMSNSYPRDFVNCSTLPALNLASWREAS

IC50 (myeloperoxidase (MPO) [3]) [nM]	IC50 (myeloperoxidase (MPO) [2]; MPO chlorination assay (APF), Table 1, read-out: APF IC50) [nM]	Structure (SMILES)	IC50 [1] [nM]	IC50 (myeloperoxidase (MPO) [2]; [4]) [nM]
		Cn1ncc2c(CSc3cc(N)nc4[nH]nnc34)cccc21 [Example 51, 7-(((1-methyl-1H-indazol-4-yl)methyl)thio)-3H-[1,2,3] triazolo[4,5-b]pyridin-5-amine]	6	60 to 200
10	10	CC(Sc1cc(N)nc2[nH]nnc12)c1ccccc1 (stereo not drawn) [Example 2, 7-((1-phenylethyl)thio)-3H-[1,2,3]triazolo[4,5-b]pyridin-5-amine]	1	
		Nc1cc(SCc2c(Cl)cccc2Cl)c2nn[nH]c2n1 [Example 11, 7-((2,6-Dichlorobenzyl)thio)-3H-[1,2,3]triazolo[4,5-b]pyridin-5-amine]	2	≤ 60
		Nc1cc(SCc2ccc(OC(F)(F)F)cc2)c2nn[nH]c2n1 [Example 7, 7-((4-(trifluoromethoxy)benzyl)thio)-3H-[1,2,3] triazolo[4,5-b]pyridin-5-amine]	20	≤ 60
